Like-named read-outs stand apart in the source and are kept apart here.
Assays:
[1] = test system: Escherichia coli (E. coli—ATCC #10536); experiment: Automated assessment of efficacy in model surfactant base (2.85% sodium cocoyl glycinate + 1.85% sodium lauroamphoacetate, pH 10), 15 seconds exposure, OD450/OD590 readout; type: cell-based; conditions: for No. of replicates showing growth (out of 4) / Δ OD 450 nm = OD450 (time = 16 hours) - OD450 (time zero), Mean / Δ OD 590 nm OD590 (time = 16 hours) - OD590 (time zero), Mean: model surfactant solution; for MBC: Escherichia coli, ATCC10536, 15 s; for Phenol MBC %(w/v): phenol alone, model surfactant, E. Coli
Protocol: Solutions were prepared such that the concentrations of the surfactant components and test actives were 1.1×x the final desired concentration in order to allow for dilution with the bacterial inoculum in the test. The solutions were manually adjusted to pH 10.0 by drop wise addition of sodium hydroxide solution, as measured with a phi meter at ambient temperature.
Tests were conducted using standard microtiter plate assays using an automated liquid handling system, 270 μl of the surfactant test solution was pipetted into each well of the microtitre plate and 30 μl of the bacterial suspension was then added. After exactly 15 seconds of bacterial exposure, a 30 μl volume of bacterial cells was withdrawn and transferred to 270 μl of D/E quench solution. After 5 minutes in the D/E quench, the optical density (OD) was measured for each plate in turn at two specific wavelengths (450 nm and 590 nm). These provide a dual check of antimicrobial activity, as the OD450 reading is specific for the yellow colour of D/E quench when bacterial growth is observed, whereas OD590 is specific for the initial purple colour of the D/E quench which is retained if no bacterial growth is observed. After the time zero OD measurements, plates were then incubated at 37° C. overnight (16 hours) before repeating the OD measurements. Delta OD values were calculated by subtracting […] the initial value at time zero. Bacterial growth is observed as an increase in OD450 and a decrease in ΔOD590. To identify antibacterially efficacious systems (those preventing appreciable bacterial growth after incubation), the following threshold changes in OD readings have been adopted: if (1), OD450 increases by less than 0.2 absorbance unit on incubation and (2). OD590 decreases by less than 0.35 unit on incubation. Conversely, where OD450 increases by more than 0.2 AU and OD590 decreases by more than 0.35 unit after incubation, corresponding to a colour shift from purple to yellow, the test system allows bacterial growth and is not deemed efficacious. Four replicate measurements in the same plate have been made for each test system. The number of replicate wells showing either bacterial growth or no growth is also readily assessed by eye by following the colour change.
Dose responses for individual components and binary mixtures of actives at a used concentration ratio were generated by sequential dilution of liquors with further surfactant solution to obtain a series of endpoints.
In some selected cases, the combinations were also tested at the weight ratio 1:1.

[2] = test system: Escherichia coli (E. coli—ATCC #10536); experiment: Synergy test: high resolution MBC microtiter plate assay, phosphate buffer containing 35% dipropylene glycol, 15 seconds contact; type: cell-based; conditions: E. coli 10536; for SI (Synergy Index = Qa/QA + Qb/QB): at Qa and Qb, <1 synergy, 1 additivity, >1 antagonism; for Qa: MBC of the first component (A) acting alone (QA): component alone (Qb = 0), complete kill in 15 seconds
Text: One measure of synergy is -the industrially accepted method described by Kull, F. C.; Eisman, P. C.; Sylwestrowicz, H. D. and Mayer, R. L., in Applied Microbiology 9:538-541 (1961), using the ratio determined by the formula:
Qa/QA+Qb/QB=Synergy Index (“SI”)
wherein: QA=concentration of compound A (first component) in percent, acting alone, which produced an end point (MBC of Compound A). Qa =concentration of compound A in percent, in the mixture, which produced an end point. QB=concentration of compound B (second component) in percent, acting alone, which produced an end point (MBC of Compound B). Qb=concentration of compound B in percent, in the mixture, which produced an end point.
When the sum of Qa/QA and Qb/QB is greater than one, antagonism is indicated. […] The lower the SI, the greater is the synergy shown by that particular mixture. The minimum biocidal concentration (MBC) of a microbicide is the lowest concentration tested under a specific set of conditions that provides complete kill of the tested microorganisms.
Synergy tests were-conducted using standard microtiter plate assays with, phosphate buffer containing 35% dipropylene glycol (DPG). In this method, a wide range of combinations of chemicals was tested by conducting high resolution MBC assays of Component (A) in the presence of various concentrations of Component (B). High resolution MBCs were determined by adding varying amounts of microbicide to one column of a microtiter plate and doing subsequent ten-fold dilutions using an automated liquid handling system to obtain a series of closely spaced endpoints. The MBC plate was inoculated one column at a time with the test microorganism. An aliquot of the inoculated well was transferred at 15 seconds to a plate containing a neutralizing agent (D/E Neutralizing Broth), mixed and held for 5 minutes before being transferred to a growth plate containing trypticase soy broth (TSB). The TSB plate was incubated at 37° C. and read for the presence/absence of growth at 24 hours. The lowest level tested that provided complete kill (as evidenced by no growth in the microtitre plate) of the test organisms in 15 seconds is the minimum biocidal concentration (MBC).
The synergy of the combinations of the present invention was determined against a bacterium, Escherichia coli (E. coli—ATCC #10536), at a concentration of approximately 1×10^8 bacteria per mL. This microorganism is representative of natural contaminants in many consumer and industrial applications.

[3] = in 2.85% sodium cocoyl glycinate + 1.85% sodium lauroamphoacetate solution at pH 10, E. coli, read-out: MBC (% w/v)

SMILES | No. of replicates showing growth (out of 4) ([1]; component alone at 0.05% w/v) | Δ OD 450 nm = OD450 (time = 16 hours) - OD450 (time zero), Mean ([1]; component alone at 0.05% w/v) | Δ OD 590 nm OD590 (time = 16 hours) - OD590 (time zero), Mean ([1]; component alone at 0.05% w/v) | SI (Synergy Index = Qa/QA + Qb/QB) [2] | Qa: MBC of the first component (A) acting alone (QA) [2] | MBC [1, 3] | No. of replicates showing growth (out of 4) ([1]; component alone at 0.2% w/v) | Δ OD 450 nm = OD450 (time = 16 hours) - OD450 (time zero), Mean ([1]; component alone at 0.2% w/v) | Δ OD 590 nm OD590 (time = 16 hours) - OD590 (time zero), Mean ([1]; component alone at 0.2% w/v) | No. of replicates showing growth (out of 4) ([1]; component alone at 0.125% w/v) | Δ OD 450 nm = OD450 (time = 16 hours) - OD450 (time zero), Mean ([1]; component alone at 0.125% w/v) | Δ OD 590 nm OD590 (time = 16 hours) - OD590 (time zero), Mean ([1]; component alone at 0.125% w/v) | No. of replicates showing growth (out of 4) ([1]; component alone at […] w/v) | Δ OD 450 nm = OD450 (time = 16 hours) - OD450 (time zero), Mean ([1]; component alone at […] w/v) | Δ OD 590 nm OD590 (time = 16 hours) - OD590 (time zero), Mean ([1]; component alone at […] w/v) | also measured
CCCc1ccccc1O [2-propyphenol] | 4 out of 4 | −1.43 | 0.46 | – | – | – | – | – | – | – | – | – | – | – | – | –
CCC(C)c1ccccc1O (centres unmarked) [2-sec-butylphenol] | 4 out of 4 | −1.50 | 0.30 | 1.00 | 0.2 weight % | 1750 µg/mL | 0 out of 4 | −0.01 | 0.09 | – | – | – | – | – | – | Phenol MBC %(w/v) [1]: 0.175 %(w/v)
Cc1ccc(C(C)(C)C)c(O)c1 [2-tert-butyl-5-methylphenol] | 4 out of 4 | −1.50 | 0.29 | – | – | 2000 µg/mL | – | – | – | 4 out of 4 | −1.45 | 0.32 | 4 out of 4 | −1.47 | 0.28 | No. of replicates showing growth (out of 4) ([1]; component alone at 0.175% w/v): 4 out of 4; Δ OD 450 nm = OD450 (time = 16 hours) - OD450 (time zero), Mean ([1]; component alone at 0.175% w/v): −1.30; Δ OD 590 nm OD590 (time = 16 hours) - OD590 (time zero), Mean ([1]; component alone at 0.175% w/v): 0.47
CC(C)(C)c1ccccc1O [2-tert-butylphenol] | 4 out of 4 | −1.58 | 0.22 | 1.00 | – | 2000 µg/mL | – | – | – | 4 out of 4 | −1.48 | 0.30 | 4 out of 4 | −1.50 | 0.28 | No. of replicates showing growth (out of 4) ([1]; component alone at 0.175% w/v): 4 out of 4; Δ OD 450 nm = OD450 (time = 16 hours) - OD450 (time zero), Mean ([1]; component alone at 0.175% w/v): −1.08; Δ OD 590 nm OD590 (time = 16 hours) - OD590 (time zero), Mean ([1]; component alone at 0.175% w/v): 0.57; Phenol MBC %(w/v) [1]: 0.2 %(w/v)
Cc1cc(O)cc(C(C)C)c1 [3-isopropyl-5-methylphenol] | – | – | – | 1.00 | – | – | – | – | – | – | – | – | – | – | – | –
CCCc1cccc(O)c1 [3-n-propylphenol] | – | – | – | 1.00 | 0.5 weight % | > 2000 µg/mL | 4 out of 4 | −0.57 | 0.56 | 4 out of 4 | −0.59 | 0.57 | 4 out of 4 | – | – | –
CC(C)(C)c1cccc(O)c1 [3-tert-butylphenol] | – | – | – | 1.00 | 0.3 weight % | > 2000 µg/mL | 4 out of 4 | −0.47 | 0.64 | 4 out of 4 | −0.45 | 0.65 | 4 out of 4 | −0.43 | 0.65 | –
Cc1cc(O)ccc1C(C)C [4-isopropyl-3-methylphenol] | 4 out of 4 | −1.52 | 0.25 | 1.00 | – | > 2000 µg/mL | 4 out of 4 | −1.41 | 0.36 | – | – | – | 4 out of 4 | −1.53 | 0.27 | No. of replicates showing growth (out of 4) ([1]; component alone at 0.1% w/v): 4 out of 4; Δ OD 450 nm = OD450 (time = 16 hours) - OD450 (time zero), Mean ([1]; component alone at 0.1% w/v): −1.50; Δ OD 590 nm OD590 (time = 16 hours) - OD590 (time zero), Mean ([1]; component alone at 0.1% w/v): 0.24
CCCCc1ccc(O)cc1 [4-n-butylphenol] | – | – | – | 1.00 | 0.2 weight % | – | – | – | – | – | – | – | – | – | – | –
CCCc1ccc(O)cc1 [4-propylphenol] | – | – | – | 1.00 | – | > 2000 µg/mL | 4 out of 4 | −1.49 | 0.43 | 4 out of 4 | −1.56 | 0.37 | 4 out of 4 | – | – | –
CCC(C)c1ccc(O)cc1 (centres unmarked) [4-sec-butylphenol] | – | – | – | 1.00 | 0.2 weight % | > 2000 µg/mL | 4 out of 4 | −0.56 | 0.59 | 4 out of 4 | −0.56 | 0.60 | 4 out of 4 | −0.53 | 0.60 | No. of replicates showing growth (out of 4) ([1]; component alone at 0.175% w/v): 4 out of 4; Δ OD 450 nm = OD450 (time = 16 hours) - OD450 (time zero), Mean ([1]; component alone at 0.175% w/v): −0.54; Δ OD 590 nm OD590 (time = 16 hours) - OD590 (time zero), Mean ([1]; component alone at 0.175% w/v): 0.59
Cc1ccc(C(C)C)cc1O [5-isopropyl-2-methylphenol] | – | – | – | 1.00 | – | – | 4 out of 4 | −0.52 | 0.62 | – | – | – | 4 out of 4 | – | – | MBC ([1]; pH 10, read-out: MBC (% w/v)): > 2000 µg/mL; No. of replicates showing growth (out of 4) ([1]; component alone at 0.1% w/v): 4 out of 4; Δ OD 450 nm = OD450 (time = 16 hours) - OD450 (time zero), Mean ([1]; component alone at 0.1% w/v): −0.52; Δ OD 590 nm OD590 (time = 16 hours) - OD590 (time zero), Mean ([1]; component alone at 0.1% w/v): 0.62

Source: patent US20150087723A1, “MICROBIAL COMPOSITION” (Rohm and Haas Company, priority 2011, published 2015)
